Results on 26 molecules are retold here after patent publication US10336762B2 (priority 2017, dated 2019).

One test deals with TNFα. In words: cells. The class given is cell-based, human. Conditions: Homo sapiens, Monocyte, LPS-stimulated human monocytes, TNFα content; read-out: EC50 TNF.
In a further test the target is IRAK4 enzyme (Homo sapiens (Human), UniProt Q9NWZ3). Kind of test: biochemical. Type of test: biochemical. The note with it: IRAK4 enzyme, TR-FRET (HTRF), 500 μM ATP. A general note: TR-FRET usually uses a lanthanide donor and a delayed reading to cut background.
Sequence of IRAK4 enzyme (Q9NWZ3 whole entry): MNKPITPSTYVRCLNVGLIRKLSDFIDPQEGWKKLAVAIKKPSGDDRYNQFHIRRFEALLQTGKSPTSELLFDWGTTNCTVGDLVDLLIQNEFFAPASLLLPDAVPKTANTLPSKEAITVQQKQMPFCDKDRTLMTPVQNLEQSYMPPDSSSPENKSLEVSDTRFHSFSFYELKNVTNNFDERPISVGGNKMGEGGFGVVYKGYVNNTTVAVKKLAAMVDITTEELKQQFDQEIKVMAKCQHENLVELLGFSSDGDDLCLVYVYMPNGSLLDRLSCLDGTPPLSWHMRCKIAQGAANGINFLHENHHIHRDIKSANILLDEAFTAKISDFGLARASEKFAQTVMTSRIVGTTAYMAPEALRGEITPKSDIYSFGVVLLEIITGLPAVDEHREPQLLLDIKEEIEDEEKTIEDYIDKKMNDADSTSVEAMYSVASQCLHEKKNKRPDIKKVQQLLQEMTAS

Regarding `CC(C)(O)[C@H](F)CNC(=O)c1cnc(-c2ccc3cc(C#N)cnn23)cc1Nc1cccnn1` [Example 588, (R)-6-(3-cyanopyrrolo[1,2-b]pyridazin-7-yl)-N-(2-fluoro-3-hydroxy-3-methylbutyl)-4-(pyridazin-3-ylamino)nicotinamide], the EC50 – broadly, the concentration giving half of the maximal effect – in the test with TNFα was 0.412 µM. Moreover, on IRAK4 enzyme, the IC50 – broadly, the concentration that gives 50% inhibition – was determined as 0.003 µM.

Consider `CC(C)(O)[C@H](F)CNC(=O)c1cnc(-c2ccc3cc(C#N)cnn23)cc1Nc1ccccc1` [Example 589, (R)-6-(3-cyanopyrrolo[1,2-b]pyridazin-7-yl)-N-(2-fluoro-3-hydroxy-3-methylbutyl)-4-(phenylamino)nicotinamide], for which, in the test on TNFα, the EC50 was found to be 0.095 µM. On IRAK4 enzyme, this molecule gave an IC50 below 0.001 µM.

For the molecule `COc1ncc(Nc2cc(-c3ccc4cc(C#N)cnn34)ncc2C(=O)NC[C@@H](F)C(C)(C)O)cn1` [Example 590, (R)-6-(3-cyanopyrrolo[1,2-b]pyridazin-7-yl)-N-(2-fluoro-3-hydroxy-3-methylbutyl)-4-((2-methoxypyrimidin-5-yl)amino)nicotinamide], the EC50 in the test on TNFα is 0.038 µM. Besides, the IC50 at IRAK4 enzyme is below 0.001 µM.

Turning to `CC(C)(O)[C@H](F)CNC(=O)c1cnc(-c2ccc3cc(C#N)cnn23)cc1Nc1ccnc(F)c1` [Example 591, (R)-6-(3-cyanopyrrolo[1,2-b]pyridazin-7-yl)-N-(2-fluoro-3-hydroxy-3-methylbutyl)-4-((2-fluoro-pyridin-4-yl)amino) nicotinamide], in the test with TNFα, the EC50 is 0.18 µM. Besides, half-maximal inhibition at IRAK4 enzyme (IC50) required 0.002 µM.

Regarding `CC(C)(O)[C@H](F)CNC(=O)c1cnc(-c2ccc3cc(C#N)cnn23)cc1Nc1cncc(C(N)=O)c1` [Example 592, (R)-4-((5-carbamoyl-pyridin-3-yl)amino)-6-(3-cyanopyrrolo[1,2-b]pyridazin-7-yl)-N-(2-fluoro-3-hydroxy-3-methylbutyl) nicotinamide], the 50% effective concentration (EC50) in the test with TNFα was found to be 0.222 µM. Besides, half-maximal inhibition at IRAK4 enzyme (IC50) was put at 0.001 µM.

In the case of `CC(C)(O)[C@H](F)CNC(=O)c1cnc(-c2ccc3cc(C#N)cnn23)cc1Nc1ccncc1` [Example 593, (R)-6-(3-cyano-pyrrolo[1,2-b]pyridazin-7-yl)-N-(2-fluoro-3-hydroxy-3-methylbutyl)-4-(pyridin-4-ylamino) nicotinamide], the EC50 in the test with TNFα stood at 0.143 µM. The IC50 against IRAK4 enzyme was found to be 0.002 µM.

As to `COC(=O)c1cncc(Nc2cc(-c3ccc4cc(C#N)cnn34)ncc2C(=O)NC[C@@H](F)C(C)(C)O)c1` [Example 594, (R)-methyl 5-((2-(3-cyanopyrrolo[1,2-b]pyridazin-7-yl)-5-((2-fluoro-3-hydroxy-3-methylbutyl)carbamoyl)pyridin-4-yl)amino) nicotinate], the EC50 in the test on TNFα is 0.316 µM. At IRAK4 enzyme, this molecule returned an IC50 of 0.002 µM.

In the case of `Cc1ncc(Nc2cc(-c3ccc4cc(C#N)cnn34)ncc2C(=O)NC[C@@H](F)C(C)(C)O)cn1` [Example 595, (R)-6-(3-cyano-pyrrolo[1,2-b]pyridazin-7-yl)-N-(2-fluoro-3-hydroxy-3-methylbutyl)-4-((2-methylpyrimidin-5-yl)amino)nicotinamide], the EC50 in the test on TNFα stood at 0.107 µM. Besides, on IRAK4 enzyme, the IC50 was below 0.001 µM.

As to `CC(C)(O)[C@H](F)CNC(=O)c1cnc(-c2ccc3cc(C#N)cnn23)cc1Nc1cnc(C#N)nc1` [Example 596, (R)-4-((2-cyano-pyrimidin-5-yl)amino)-6-(3-cyanopyrrolo[1,2-b]pyridazin-7-yl)-N-(2-fluoro-3-hydroxy-3-methylbutyl) nicotinamide], the EC50 in the test with TNFα was above 10 µM. At IRAK4 enzyme, this molecule gave an IC50 of 0.003 µM.

In the case of `CC(C)(O)[C@H](F)CNC(=O)c1cnc(-c2ccc3cc(C#N)cnn23)cc1Nc1ccc(OC(F)F)nc1` [Example 597, (R)-6-(3-cyano-pyrrolo[1,2-b]pyridazin-7-yl)-4-((6-(difluoro-methoxy)pyridin-3-yl)amino)-N-(2-fluoro-3-hydroxy-3-methylbutyl) nicotinamide], the EC50 with TNFα is 0.106 µM. Moreover, 0.001 µM corresponded to half-maximal inhibition against IRAK4 enzyme (IC50).

For the molecule `COc1cc(Nc2cc(-c3ccc4cc(C#N)cnn34)ncc2C(=O)NC[C@@H](F)C(C)(C)O)ccn1` [Example 598, (R)-6-(3-cyano-pyrrolo[1,2-b]pyridazin-7-yl)-N-(2-fluoro-3-hydroxy-3-methyl-butyl)-4-((2-methoxy-pyridin-4-yl)amino) nicotinamide], the EC50 in the test on TNFα came to 0.106 µM. For the same molecule, on IRAK4 enzyme, the IC50 was below 0.001 µM.

In the case of `CC(C)(O)[C@H](F)CNC(=O)c1cnc(-c2ccc3cc(C#N)cnn23)cc1Nc1ccc(F)nc1` [Example 599, (R)-6-(3-cyano-pyrrolo[1,2-b]pyridazin-7-yl)-N-(2-fluoro-3-hydroxy-3-methylbutyl)-4-((6-fluoro-pyridin-3-yl)amino) nicotinamide], the EC50 in the test with TNFα is 0.068 µM. At IRAK4 enzyme, this molecule returned an IC50 below 0.001 µM.

Consider `CC(C)(O)[C@H](F)CNC(=O)c1cnc(-c2ccc3cc(C#N)cnn23)cc1Nc1cncc(F)c1` [Example 600, (R)-6-(3-cyano-pyrrolo[1,2-b]pyridazin-7-yl)-N-(2-fluoro-3-hydroxy-3-methylbutyl)-4-((5-fluoropyridin-3-yl)amino)nicotinamide], for which, in the test on TNFα, the EC50 was 0.072 µM. On IRAK4 enzyme, this molecule gave a concentration for half-maximal inhibition (IC50) below 0.001 µM.

Take `CC(C)(O)[C@H](F)CNC(=O)c1cnc(-c2ccc3cc(C#N)cnn23)cc1Nc1ccc(C(N)=O)nc1` [Example 601, (R)-5-((2-(3-cyano-pyrrolo[1,2-b]pyridazin-7-yl)-5-((2-fluoro-3-hydroxy-3-methylbutyl)carbamoyl)pyridin-4-yl)amino) picolinamide]: the EC50 in the test on TNFα came out at 0.064 µM. At IRAK4 enzyme, the IC50 was below 0.001 µM.

Take `COc1ccc(Nc2cc(-c3ccc4cc(C#N)cnn34)ncc2C(=O)NC[C@@H](F)C(C)(C)O)cn1` [Example 602, (R)-6-(3-cyanopyrrolo[1,2-b]pyridazin-7-yl)-N-(2-fluoro-3-hydroxy-3-methylbutyl)-4-((6-methoxy-pyridin-3-yl)amino) nicotinamide]: the EC50 with TNFα came to 0.07 µM. The molecule also came in with a half-maximal inhibitory concentration (IC50) against IRAK4 enzyme below 0.001 µM.

As to `CC(C)(O)[C@H](F)CNC(=O)c1cnc(-c2ccc3cc(C#N)cnn23)cc1Nc1ccc(C#N)nc1` [Example 603, (R)-4-((6-cyanopyridin-3-yl)amino)-6-(3-cyano-pyrrolo[1,2-b]pyridazin-7-yl)-N-(2-fluoro-3-hydroxy-3-methylbutyl)nicotinamide], in the test on TNFα, the EC50 was 0.081 µM. Also, the midpoint of inhibition at IRAK4 enzyme, the IC50, lay at 0.001 µM.

For `COc1cc(Nc2cc(-c3ccc4cc(C#N)cnn34)ncc2C(=O)NC[C@@H](F)C(C)(C)O)ccc1C(N)=O` [Example 604, (R)-4-((4-carbamoyl-3-methoxyphenyl)amino)-6-(3-cyanopyrrolo[1,2-b]pyridazin-7-yl)-N-(2-fluoro-3-hydroxy-3-methylbutyl)nicotinamide], the EC50 with TNFα was 0.283 µM. On IRAK4 enzyme, this molecule registered an IC50 of 0.007 µM.

Take `COc1cncc(Nc2cc(-c3ccc4cc(C#N)cnn34)ncc2C(=O)NC[C@@H](F)C(C)(C)O)c1` [Example 605, (R)-6-(3-cyanopyrrolo[1,2-b]pyridazin-7-yl)-N-(2-fluoro-3-hydroxy-3-methyl-butyl)-4-((5-methoxy-pyridin-3-yl)amino) nicotinamide]: the EC50 with TNFα came out at 0.024 µM. This molecule also returned an IC50 against IRAK4 enzyme below 0.001 µM.

For the molecule `COc1cccc(Nc2cc(-c3ccc4cc(C#N)cnn34)ncc2C(=O)NC[C@@H](F)C(C)(C)O)c1` [Example 606, (R)-6-(3-cyanopyrrolo[1,2-b]pyridazin-7-yl)-N-(2-fluoro-3-hydroxy-3-methylbutyl)-4-((3-methoxyphenyl)amino) nicotinamide], in the test with TNFα, the EC50 was found to be 0.033 µM. At IRAK4 enzyme, the IC50 came out at 0.001 µM.

Turning to `CC(C)(O)[C@H](F)CNC(=O)c1cnc(-c2ccc3cc(C#N)cnn23)cc1Nc1cccc(OC(F)F)c1` [Example 608, (R)-6-(3-cyanopyrrolo[1,2-b]pyridazin-7-yl)-4-((3-(difluoromethoxy)phenyl)amino)-N-(2-fluoro-3-hydroxy-3-methylbutyl) nicotinamide], in the test on TNFα, the EC50 came out at 0.123 µM. The molecule further registered an IC50 against IRAK4 enzyme of 0.001 µM.

Take `COc1ccc(Nc2cc(-c3ccc4cc(C#N)cnn34)ncc2C(=O)NC[C@@H](F)C(C)(C)O)cc1` [Example 609, (R)-6-(3-cyanopyrrolo[1,2-b]pyridazin-7-yl)-N-(2-fluoro-3-hydroxy-3-methylbutyl)-4-((4-methoxyphenyl)amino) nicotinamide]: in the test with TNFα, the EC50 stood at 0.035 µM. The IC50 against IRAK4 enzyme was below 0.001 µM.

Turning to `CC(C)(O)[C@H](F)CNC(=O)c1cnc(-c2ccc3cc(C#N)cnn23)cc1Nc1cncc(C#N)c1` [Example 610, (R)-4-((5-cyanopyridin-3-yl)amino)-6-(3-cyano-pyrrolo[1,2-b]pyridazin-7-yl)-N-(2-fluoro-3-hydroxy-3-methylbutyl)nicotinamide], the EC50 with TNFα was 0.05 µM. On IRAK4 enzyme, this molecule showed an IC50 below 0.001 µM.

As to `COc1cc(Nc2cc(-c3ccc4cc(C#N)cnn34)ncc2C(=O)NC[C@@H](F)C(C)(C)O)ccc1C#N` [Example 611, (R)-4-((4-cyano-3-methoxy-phenyl)amino)-6-(3-cyanopyrrolo[1,2-b]pyridazin-7-yl)-N-(2-fluoro-3-hydroxy-3-methylbutyl)nicotinamide], in the test with TNFα, the EC50 was above 10 µM. On IRAK4 enzyme, this molecule displayed an IC50 of 0.015 µM.

`CC1(Nc2cc(-c3ccc4cc(C#N)cnn34)ncc2C(=O)NCC#N)COC1` [Example 612, N-(cyanomethyl)-6-(3-cyanopyrrolo[1,2-b]pyridazin-7-yl)-4-((3-methyloxetan-3-yl)amino)nicotinamide]: the EC50 with TNFα is 0.051 µM. On IRAK4 enzyme, this molecule came in with an IC50 below 0.001 µM.

`COC(=O)NC[C@H]1C[C@H](Nc2cc(-c3ccc4cc(C#N)cnn34)ncc2C(=O)NCC#N)C1` [Example 613, methyl (((1r,3r)-3-((5-((cyanomethyl)carbamoyl)-2-(3-cyanopyrrolo[1,2-b]pyridazin-7-yl)pyridin-4-yl)amino)cyclobutyl)methyl)carbamate]: the EC50 with TNFα worked out at 0.015 µM. The molecule further displayed an IC50 against IRAK4 enzyme below 0.001 µM.

For the molecule `CC(C)(O)[C@H](F)CNC(=O)c1cnc(-c2ccc3cc(C#N)cnn23)cc1N[C@H]1C[C@H](CNC(=O)C2CCO2)C1` (stereo partly shown) [Example 614], the EC50 with TNFα amounted to 0.156 µM. The molecule also returned an IC50 on IRAK4 enzyme of 0.002 µM.
